pIC50: −log10 of the molar value.
Target: T1, purified human HDAC6 (Homo sapiens, UniProt Q9UBN7)
T1 construct: purchased BPS Bioscience 5006
T1 sequence (Q9UBN7 1-1215): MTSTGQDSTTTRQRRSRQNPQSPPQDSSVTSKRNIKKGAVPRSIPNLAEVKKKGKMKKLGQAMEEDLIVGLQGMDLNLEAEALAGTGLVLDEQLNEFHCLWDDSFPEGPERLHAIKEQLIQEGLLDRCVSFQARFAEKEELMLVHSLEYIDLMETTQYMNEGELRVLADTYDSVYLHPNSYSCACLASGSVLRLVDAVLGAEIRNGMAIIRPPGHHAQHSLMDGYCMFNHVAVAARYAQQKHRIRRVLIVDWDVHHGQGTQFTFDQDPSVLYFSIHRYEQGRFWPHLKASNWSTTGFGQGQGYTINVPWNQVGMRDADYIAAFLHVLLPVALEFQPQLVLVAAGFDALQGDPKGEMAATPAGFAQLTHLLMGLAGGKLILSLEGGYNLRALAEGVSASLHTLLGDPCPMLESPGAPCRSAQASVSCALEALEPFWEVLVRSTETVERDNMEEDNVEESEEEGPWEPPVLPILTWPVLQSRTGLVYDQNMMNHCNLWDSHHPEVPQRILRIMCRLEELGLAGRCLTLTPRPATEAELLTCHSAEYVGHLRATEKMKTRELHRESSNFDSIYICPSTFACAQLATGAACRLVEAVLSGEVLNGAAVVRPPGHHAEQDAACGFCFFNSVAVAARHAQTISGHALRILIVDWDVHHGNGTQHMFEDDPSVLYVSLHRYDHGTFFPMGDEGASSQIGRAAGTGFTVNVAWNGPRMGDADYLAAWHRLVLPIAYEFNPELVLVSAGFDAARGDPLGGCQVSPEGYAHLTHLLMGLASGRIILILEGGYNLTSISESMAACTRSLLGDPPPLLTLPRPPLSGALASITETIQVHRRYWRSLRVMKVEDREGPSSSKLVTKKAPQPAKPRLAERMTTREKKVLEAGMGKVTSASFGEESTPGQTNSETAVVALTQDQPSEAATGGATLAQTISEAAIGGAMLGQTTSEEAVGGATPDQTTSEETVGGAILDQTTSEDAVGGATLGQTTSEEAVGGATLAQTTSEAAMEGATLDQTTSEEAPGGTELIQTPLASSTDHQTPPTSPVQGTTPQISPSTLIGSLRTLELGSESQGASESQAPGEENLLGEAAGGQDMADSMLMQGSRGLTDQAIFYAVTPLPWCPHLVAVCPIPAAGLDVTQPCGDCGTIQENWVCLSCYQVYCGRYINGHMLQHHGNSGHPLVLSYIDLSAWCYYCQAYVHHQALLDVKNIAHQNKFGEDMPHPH
Assay: HDAC6 Enzyme Assay
Type: biochemical
How it was run: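 Purified human HDAC6 incubated 1 h at 30 °C with Ac-Arg-Gly-Lys(Ac)-AMC and compound; trichostatin A stop, trypsin release of AMC, fluorescence Ex 340/Em 460 nm. IC50 from concentration–response relative to DMSO.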

[1] = purified human HDAC6, substrate Ac-Arg-Gly-Lys(Ac)-AMC, 1 hour at 30° C., reported as bins

Compound | pIC50 [1] | further results
Cn1c(C(=O)N[C@@H](c2ccc(C(=O)NO)cc2)C(F)(F)F)cc(Cl)c1Cl [Compound I-108, 4,5-dichloro-1-methyl-N-((1S)-2,2,2-trifluoro-1-{4-[(hydroxyamino)carbonyl]phenyl}ethyl)-1H-pyrrole-2-carboxamide] | – | IC50 (bin: greater than 500 nM and less than 1 μM (lower bound in nM, upper bound in μM)): 500 to 1000 nM
CC(NC(=O)Nc1ccc(F)cc1)c1ccc(C(=O)NO)cc1 (centres unmarked) [Compound I-37, 4-[1-({[(4-fluorophenyl)amino]carbonyl}amino)ethyl]-N-hydroxybenzamide] | > 7.00 | –
Cc1ccc(CNC(=O)NC(C)c2ccc(C(=O)NO)cc2)cc1 (centres unmarked) [Compound I-277, N-hydroxy-4-[1-({[(4-methylbenzyl)amino]carbonyl}amino)ethyl]benzamide] | 6.30 to 7.00 | –
Cc1cc(C(=O)NO)ccc1C(C)NC(=O)c1cc2ccccc2s1 (centres unmarked) [Compound I-485, N-(1-{4-[(hydroxyamino)carbonyl]-2-methylphenyl}ethyl)-1-benzothiophene-2-carboxamide] | 6.30 to 7.00 | –
CC(NC(=O)NCCc1ccccc1)c1ccc(C(=O)NO)cc1 (centres unmarked) [Compound I-210, N-hydroxy-4-[1-({[(2-phenylethyl)amino]carbonyl}amino)ethyl]benzamide] | > 7.00 | –
CC(C)[C@@H](NC(=O)N[C@H](C)c1ccccc1)c1ccc(C(=O)NO)cc1 [Compound I-514, N-hydroxy-4-[(1R)-2-methyl-1-({[(1R)-1-phenylethyl]carbamoyl}amino)propyl]benzamide] | > 7.00 | –
CC(C)[C@@H](NC(=O)NCCc1ccccc1)c1ccc(C(=O)NO)cc1 [Compound I-522, N-hydroxy-4-[(1R)-2-methyl-1-({[(2-phenylethyl)amino]carbonyl}amino)propyl]benzamide] | > 7.00 | –
CC(C)(C)C(NC(=O)c1cscn1)c1ccc(C(=O)NO)cc1 (centres unmarked) [Compound I-123, N-(1-{4-[(hydroxyamino)carbonyl]phenyl}-2,2-dimethylpropyl)-1,3-thiazole-4-carboxamide] | 6.30 to 7.00 | –
Cc1cc(C)c(S(=O)(=O)NC(C)c2ccc(C(=O)NO)cc2)c(C)c1 (centres unmarked) [Compound I-176, N-hydroxy-4-{1-[(mesitylsulfonyl)amino]ethyl}benzamide] | 6.30 to 7.00 | –
CC(NC(=O)CC1CCOCC1)c1ccc(C(=O)NO)cc1 (centres unmarked) [Compound I-313, N-hydroxy-4-{1-[(tetrahydro-2H-pyran-4-ylacetyl)amino]ethyl}benzamide] | – | pIC50 (bin: greater than 1 μM): < 6.00
CC(C)[C@@H](NC(=O)Nc1cccc2ccccc12)c1ccc(C(=O)NO)cc1 [Compound I-524, N-hydroxy-4-((1R)-2-methyl-1-{[(1-naphthylamino)carbonyl]amino}propyl)benzamide] | > 7.00 | –
O=C(NO)c1ccc([C@H](NC(=O)c2ccc(-c3ccccc3)cc2)C(F)(F)F)cc1 [Compound I-296, N-((1S)-2,2,2-trifluoro-1-{4-[(hydroxyamino)carbonyl]phenyl}ethyl)biphenyl-4-carboxamide] | > 7.00 | –
CC(C)(C)C(NC(=O)c1cc2cc(Cl)ccc2o1)c1ccc(C(=O)NO)cc1 (centres unmarked) [Compound I-270, 5-chloro-N-(1-{4-[(hydroxyamino)carbonyl]phenyl}-2,2-dimethylpropyl)-1-benzofuran-2-carboxamide] | 6.30 to 7.00 | –
CC(NC(=O)c1cccs1)c1cccc(C(=O)NO)c1 (centres unmarked) [Compound I-267, N-(1-{3-[(hydroxyamino)carbonyl]phenyl}ethyl)thiophene-2-carboxamide] | 6.30 to 7.00 | –
COc1ccccc1CC(=O)NC(C)c1ccc(C(=O)NO)cc1 (centres unmarked) [Compound I-34, N-hydroxy-4-(1-{[(2-methoxyphenyl)acetyl]amino}ethyl)benzamide] | – | pIC50 (bin: greater than 1 μM): < 6.00
CC(NC(=O)Cc1cc(C(F)(F)F)cc(C(F)(F)F)c1)c1cccc(C(=O)NO)c1 (centres unmarked) [Compound I-362, 3-[1-({[3,5-bis(trifluoromethyl)phenyl]acetyl}amino)ethyl]-N-hydroxybenzamide] | – | pIC50 (bin: greater than 1 μM): < 6.00
CC(NS(=O)(=O)c1ccc(Cl)cc1)c1ccc(C(=O)NO)cc1 (centres unmarked) [Compound I-302, 4-(1-{[(4-chlorophenyl)sulfonyl]amino}ethyl)-N-hydroxybenzamide] | 6.30 to 7.00 | –

Source: US9382197B2, “Substituted hydroxamic acids and uses thereof” (Millennium Pharmaceuticals, Inc., priority 2010, dated 2016)
